Source: US20220125051A1, “PRE-HARVEST DESICCATION METHOD” (SYNGENTA CROP PROTECTION AG, priority 2019, published 2022)
Read-outs that look alike come from different tables or passages of the source.

Columns and labels:
Assay type in all cases: in vivo
[1] = tested on: Digitaria sanguinalis (DIGSA); assay: Post-emergence efficacy, Method B; conditions: read-out: Control of weed species after post-emergence application, DIGSA
Description: (§1) An “instant formulation”, known as the IF50, containing 50 g/L of the “technical” (i.e. unformulated) active ingredient was prepared by dissolving the active ingredient in a mixture of organic solvents and emulsifier, details of which are provided in the table. This IF50 was then mixed with a small, variable amount of acetone to aid dissolution, before addition of an aqueous solution of 1% v/v ammonium sulphate+1% v/v Empicol ESC70 (Sodium lauryl ether sulphate) adjuvant, as the aqueous diluent, to form an aqueous spray solution which contains a predetermined concentration of the active ingredient (which varies depending on the application rate of the active ingredient to the plants).
(§2) This aqueous spray solution was then sprayed onto the plants, after about 12 days' cultivation. The plants were grown from seeds sown in standard soil, placed in a glasshouse under controlled conditions (at 24/18° C. or 20/16° C., day/night; 16 hours light; 65% humidity). After spray application the plants were then grown on in a glasshouse under the same conditions and watered twice daily. […] the test was evaluated (100=total damage to plant; 0=no damage to plant).
(§3) Ipomoea hederacea (IPOHE), Euphorbia heterophylla (EPHHL), Chenopodium album (CHEAL), Amaranthus retroflexus (AMARE), Lolium perenne (LOLPE), Digitaria sanguinalis (DIGSA), Eleusine indica (ELEIN), Echinochloa crus-galli (ECHCG), Setaria faberi (SETFA)

Lolium perenne (LOLPE) [2] = assay: Post-emergence efficacy, Method B; conditions: read-out: Control of weed species after post-emergence application, LOLPE
Description: as §1, §2, §3

Setaria faberi (SETFA) [3] = assay: Post-emergence efficacy, Method B; conditions: read-out: Control of weed species after post-emergence application, SETFA
Description: as §1, §2, §3

[4] = tested on: Ipomoea hederacea (IPOHE); assay: Post-emergence efficacy, Method B; conditions: read-out: Control of weed species after post-emergence application, IPOHE
Description: as §1, §2, §3

[5] = tested on: Euphorbia heterophylla (EPHHL); assay: Post-emergence efficacy, Method B; conditions: read-out: Control of weed species after post-emergence application, EPHHL
Description: as §1, §2, §3

Eleusine indica (ELEIN) [6] = assay: Post-emergence efficacy, Method B; conditions: read-out: Control of weed species after post-emergence application, ELEIN
Description: as §1, §2, §3

[7] = tested on: Chenopodium album (CHEAL); assay: Post-emergence efficacy, Method B; conditions: read-out: Control of weed species after post-emergence application, CHEAL
Description: as §1, §2, §3

[8] = tested on: Amaranthus retroflexus (AMARE); assay: Post-emergence efficacy, Method B; conditions: read-out: Control of weed species after post-emergence application, AMARE
Description: as §1, §2, §3

[9] = tested on: Echinochloa crus-galli (ECHCG); assay: Post-emergence efficacy, Method B; conditions: read-out: Control of weed species after post-emergence application, ECHCG
Description: as §1, §2, §3

[10] = tested on: Euphorbia heterophylla (EPHHL); assay: Post-emergence efficacy, Method A; conditions: Euphorbia heterophylla, post-emergence, 312 h, evaluated after 13 days
How it was run: (§4)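 Plants grown 14 days in glasshouse (24/16 °C, 14 h light, 65% humidity) were sprayed with compound formulated in IF50. The spray was diluted in 0.25% or 1% Empicol ESC70 plus 1% ammonium sulphate. Damage was scored 13 days later on a 0-100 scale, where 100 is total damage.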

Eleusine indica (ELEIN) [11] = assay: Post-emergence efficacy, Method A; conditions: Eleusine indica, post-emergence, 312 h, evaluated after 13 days
How it was run: as §4

[12] = tested on: Chenopodium album (CHEAL); assay: Post-emergence efficacy, Method A; conditions: Chenopodium album, post-emergence, 312 h, evaluated after 13 days
How it was run: as §4

[13] = tested on: Amaranthus palmeri (AMAPA); assay: Post-emergence efficacy, Method A; conditions: Amaranthus palmeri, post-emergence, 312 h, evaluated after 13 days
How it was run: as §4

[14] = tested on: Digitaria sanguinalis (DIGSA); assay: Post-emergence efficacy, Method A; conditions: Digitaria sanguinalis, post-emergence, 312 h, evaluated after 13 days
How it was run: as §4

Lolium perenne (LOLPE) [15] = assay: Post-emergence efficacy, Method A; conditions: Lolium perenne, post-emergence, 312 h, evaluated after 13 days
How it was run: as §4

Setaria faberi (SETFA) [16] = assay: Post-emergence efficacy, Method A; conditions: Setaria faberi, post-emergence, 312 h, evaluated after 13 days
How it was run: as §4

[17] = tested on: Ipomoea hederacea (IPOHE); assay: Post-emergence efficacy, Method A; conditions: Ipomoea hederacea, post-emergence, 312 h, evaluated after 13 days
How it was run: as §4

[18] = tested on: Echinochloa crus-galli (ECHCG); assay: Post-emergence efficacy, Method A; conditions: Echinochloa crus-galli, post-emergence, 312 h, evaluated after 13 days
How it was run: as §4

[19] = Application Rate 500 g/Ha, Method A, read-out: Control of weed species after post-emergence application, EPHHL (100=total damage to plant; 0=no damage to plant)
[20] = Application Rate 500 g/Ha, Method A, read-out: Control of weed species after post-emergence application, ELEIN (100=total damage to plant; 0=no damage to plant)
[21] = Application Rate 500 g/Ha, Method A, read-out: Control of weed species after post-emergence application, CHEAL (100=total damage to plant; 0=no damage to plant)
[22] = Application Rate 500 g/Ha, Method A, read-out: Control of weed species after post-emergence application, AMAPA (100=total damage to plant; 0=no damage to plant)
[23] = Method B, 500 g/Ha, 100=total damage to plant, 0=no damage
[24] = Method B, 1000 g/Ha, 100=total damage to plant, 0=no damage

N[C@H](CC[n+]1ccc(-c2ncccn2)cn1)C(=O)O [Compound A207, [(1R)-1-carboxy-3-(4-pyrimidin-2-ylpyridazin-1-ium-1-yl)propyl]ammonium 2,2,2-trifluoroacetate]
pest or weed control at 1000 g/ha [1]: 90%
pest or weed control at 1000 g/ha (Lolium perenne (LOLPE) [2]): 20%
pest or weed control at 1000 g/ha (Setaria faberi (SETFA) [3]): 100%
pest or weed control at 1000 g/ha [4]: 100%
pest or weed control at 1000 g/ha [5]: 70%
pest or weed control at 1000 g/ha (Eleusine indica (ELEIN) [6]): 100%
pest or weed control at 1000 g/ha [7]: 90%
pest or weed control at 1000 g/ha [8]: 100%
pest or weed control at 1000 g/ha [9]: 100%
pest or weed control at 500 g/ha [10, 19]: 90%
pest or weed control at 500 g/ha (Eleusine indica (ELEIN) [11]; [20]): 100%
pest or weed control at 500 g/ha [12, 21]: 100%
pest or weed control at 500 g/ha [13, 22]: 100%

O=S(=O)([O-])CC[n+]1ccc(-c2ccncn2)cn1 [Compound A4]
pest or weed control at 500 g/ha [1, 23]: 100%
pest or weed control at 500 g/ha (Lolium perenne (LOLPE) [2]; [23]): 90%
pest or weed control at 500 g/ha (Setaria faberi (SETFA) [3]; [23]): 40%
pest or weed control at 500 g/ha [4, 23]: 100%
pest or weed control at 500 g/ha [5, 23]: 100%
pest or weed control at 500 g/ha (Eleusine indica (ELEIN) [6]; [23]): 80%
pest or weed control at 500 g/ha [7, 23]: 80%
pest or weed control at 500 g/ha [8, 23]: 100%
pest or weed control at 500 g/ha [9, 23]: 70%
pest or weed control at 500 g/ha ([14]; Application rate 500 g/Ha, 100=total damage to plant, 0=no damage to plant, read-out: Control of weed species after post-emergence application, DIGSA): 80%
pest or weed control at 500 g/ha (Lolium perenne (LOLPE) [15]; Application rate 500 g/Ha, 100=total damage to plant, 0=no damage to plant, read-out: Control of weed species after post-emergence application, LOLPE): 100%
pest or weed control at 500 g/ha (Setaria faberi (SETFA) [16]; Application rate 500 g/Ha, 100=total damage to plant, 0=no damage to plant, read-out: Control of weed species after post-emergence application, SETFA): 60%
pest or weed control at 500 g/ha ([17]; Application rate 500 g/Ha, 100=total damage to plant, 0=no damage to plant, read-out: Control of weed species after post-emergence application, IPOHE): 90%
pest or weed control at 500 g/ha ([10]; Application rate 500 g/Ha, 100=total damage to plant, 0=no damage to plant, read-out: Control of weed species after post-emergence application, EPHHL): 100%
pest or weed control at 500 g/ha (Eleusine indica (ELEIN) [11]; Application rate 500 g/Ha, 100=total damage to plant, 0=no damage to plant, read-out: Control of weed species after post-emergence application, ELEIN): 100%
pest or weed control at 500 g/ha ([12]; Application rate 500 g/Ha, 100=total damage to plant, 0=no damage to plant, read-out: Control of weed species after post-emergence application, CHEAL): 80%
pest or weed control at 500 g/ha ([13]; Application rate 500 g/Ha, 100=total damage to plant, 0=no damage to plant, read-out: Control of weed species after post-emergence application, AMAPA): 100%
pest or weed control at 500 g/ha ([18]; Application rate 500 g/Ha, 100=total damage to plant, 0=no damage to plant, read-out: Control of weed species after post-emergence application, ECHCG): 60%

O=C([O-])CCC[n+]1ccc(-c2ncccn2)cn1 [Compound A220]
pest or weed control at 1000 g/ha [1, 24]: 100%
pest or weed control at 1000 g/ha (Lolium perenne (LOLPE) [2]; [24]): 90%
pest or weed control at 1000 g/ha (Setaria faberi (SETFA) [3]; [24]): 30%
pest or weed control at 1000 g/ha [4, 24]: 30%
pest or weed control at 1000 g/ha [5, 24]: 100%
pest or weed control at 1000 g/ha (Eleusine indica (ELEIN) [6]; [24]): 100%
pest or weed control at 1000 g/ha [7, 24]: 90%
pest or weed control at 1000 g/ha [8, 24]: 100%
pest or weed control at 1000 g/ha [9, 24]: 90%
pest or weed control at 500 g/ha ([14]; Application Rate 500 g/Ha, Method A, read-out: Control of weed species after post-emergence application, DIGSA (100=total damage to plant; 0=no damage to plant)): 90%
pest or weed control at 500 g/ha (Lolium perenne (LOLPE) [15]; Application Rate 500 g/Ha, Method A, read-out: Control of weed species after post-emergence application, LOLPE (100=total damage to plant; 0=no damage to plant)): 60%
pest or weed control at 500 g/ha (Setaria faberi (SETFA) [16]; Application Rate 500 g/Ha, Method A, read-out: Control of weed species after post-emergence application, SETFA (100=total damage to plant; 0=no damage to plant)): 60%
pest or weed control at 500 g/ha ([17]; Application Rate 500 g/Ha, Method A, read-out: Control of weed species after post-emergence application, IPOHE (100=total damage to plant; 0=no damage to plant)): 80%
pest or weed control at 500 g/ha [10, 19]: 90%
pest or weed control at 500 g/ha (Eleusine indica (ELEIN) [11]; [20]): 20%
pest or weed control at 500 g/ha [12, 21]: 100%
pest or weed control at 500 g/ha [13, 22]: 100%
pest or weed control at 500 g/ha ([18]; Application Rate 500 g/Ha, Method A, read-out: Control of weed species after post-emergence application, ECHCG (100=total damage to plant; 0=no damage to plant)): 40%
